This is an account of results in US12643912B2, “Macrocyclic compounds, a process for their preparation and pharmaceutical compositions containing them” (LES LABORATOIRES SERVIER, priority 2020, dated 2026).

Read-outs that look alike come from different tables or passages of the source.

For experiment [1], the system named is Nrf2 (Keap1-NRF2 nuclear translocation). Put plainly: U2OS translocation assay (PathHunter U2OS Keap1-NRF2 Nuclear Translocation Cell Line). The format is cell-based. In outline:
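Enzyme-fragment complementation read-out: luminescence after 60 min of detection reagent at room temperature, following a 3 h, 37° C compound exposure of engineered U2OS Keap1-NRF2 translocation cells (1% FBS medium). Signal scaled from 1% DMSO basal to 10 μM andrographolide maximum.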

Experiment [2] has as its target T1, Keap1 (A321-C624) (h) (Homo sapiens, UniProt Q14145).
T1 construct: His-Thromb-KEAP1(A321-C624) acquired from Novalix (batch PU-P01) was immobilized covalently by amine coupling; His tag (N); thrombin cleavage site (Thromb) (N); purchased Novalix batch PU-P01
Put plainly: Surface Plasmon Resonance binding assay to Kelch domain of KEAP1. Conditions: Biacore T200, 25° C., immobilized His-Thromb-KEAP1(A321-C624), single cycle kinetics, KD=kd/ka from 1:1 fit; read-out: Keap1 (A321-C624) (h) direct/SPR (KD). Here is the method: EXAMPLE 85: SURFACE PLASMON RESONANCE
Binding assay to Kelch domain of KEAP1 was performed by Surface Plasmon Resonance (SPR) on a Biacore T200 (GE Healthcare) at 25° C. using CM5 chip. His-Thromb-KEAP1(A321-C624) acquired from Novalix (batch PU-P01) was immobilized covalently by amine coupling using standard wizard protocol, at a concentration of 20 μg/mL in sodium acetate pH 5.5. The ligand was captured until 1250 RU was reached. Amine blank is used as the reference flow cell. Binding of analyte to the ligand was monitored in real time with associations of 180 seconds and a dissociation of 720 seconds. Association (ka) and dissociation (kd) rates were fitted with a simple 1:1 kinetic interaction model using Biacore T200 Evaluation Software (GE Healthcare). The equilibrium constant (KD=kd/ka) was calculated from these fitted parameters. […] The Biacore binding assay was performed with a flowrate of 50 μL/min using a running buffer of 10 mM HEPES (pH 7.4), 150 mM NaCl, 3 mM EDTA, 1 mM TCEP, 0.05% P20,5% DMSO. Double subtraction was used by subtracting both reference flow cell and previous blank cycle (with running buffer). Solvent correction was applied to correct DMSO bulk effect.
Background: In SPR one partner is held on a chip, and binding of the other changes the refractive index at the surface.

Where [3] appears, read: read-out: CELLULAR U2OS EC50, U2OS Keap1-NRF2 nuclear translocation cells, 3 h incubation, luminescence, normalized between 1% DMSO and 10 μM andrographolide.

One may read the EC50 as the midpoint of the concentration-response curve.

T1 sequence (Q14145 321-624): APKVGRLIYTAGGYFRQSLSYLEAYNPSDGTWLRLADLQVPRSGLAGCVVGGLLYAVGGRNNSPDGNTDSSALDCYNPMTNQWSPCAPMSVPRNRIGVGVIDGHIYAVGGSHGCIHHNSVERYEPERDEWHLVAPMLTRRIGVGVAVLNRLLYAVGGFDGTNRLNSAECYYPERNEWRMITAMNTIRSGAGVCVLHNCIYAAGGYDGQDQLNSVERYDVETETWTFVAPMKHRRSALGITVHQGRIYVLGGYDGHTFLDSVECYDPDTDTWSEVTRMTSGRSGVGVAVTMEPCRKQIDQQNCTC

Take `COc1cc2cc3c1OS(=O)(=O)N(Cc1cc(ccc1C)C(CC(=O)O)c1ccc4c(nnn4CCCCO2)c1C)C3` (single isomer, unassigned) [Example 16b, [24-Methoxy-4,31-dimethyl-27,27-dioxo-21,26-dioxa-27λ^6-thia-1,14,15,16-tetraazahexacyclo[20.5.3.1^3,70.1^9,130.0^12,160.0^25,29]dotriaconta-3(32),4,6,9(31),10,12,14,22,24,29-decaen-8-yl]acetic acid]: in experiment [1] (setting [3]), the EC50 amounted to 108 nM. Further, the Kd in experiment [2] was 1.73 nM.
Consider `Cc1ccc2cc1CN1Cc3cc(cc(F)c3OS1(=O)=O)OCCCCn1nnc3c(C)c(ccc31)C2CC(=O)O` (single isomer, unassigned) [Example 17a, [24-Fluoro-4,31-dimethyl-27,27-dioxo-21,26-dioxa-27λ^6-thia-1,14,15,16-tetraazahexacyclo[20.5.3.1^3,70.1^9,130.0^12,160.0^25,29]dotriaconta-3(32),4,6,9(31),10,12,14,22,24,29-decaen-8-yl]acetic acid], for which the EC50 in experiment [1] (setting [3]) was determined as 1660 nM. Besides, in experiment [2], the Kd is 25.7 nM.
For `Cc1ccc2cc1CN1Cc3cc(cc(F)c3OS1(=O)=O)OCCCCn1nnc3c(C)c(ccc31)C2CC(=O)O` (single isomer, unassigned) [Example 17b, [24-Fluoro-4,31-dimethyl-27,27-dioxo-21,26-dioxa-27λ^6-thia-1,14,15,16-tetraazahexacyclo[20.5.3.1^3,70.1^9,130.0^12,160.0^25,29]dotriaconta-3(32),4,6,9(31),10,12,14,22,24,29-decaen-8-yl]acetic acid], in that order: 89 nM and 5.55 nM.
In the case of `Cc1c(F)cc2cc1CN1Cc3cc(ccc3OS1(=O)=O)OCCCCn1nnc3c(C)c(ccc31)C2CC(=O)O` (single isomer, unassigned) [Example 18a, [5-Fluoro-4,31-dimethyl-27,27-dioxo-21,26-dioxa-27λ^6-thia-1,14,15,16-tetraazahexacyclo[20.5.3.1^3,70.1^9,130.0^12,160.0^25,29]dotriaconta-3(32),4,6,9(31),10,12,14,22,24,29-decaen-8-yl]acetic acid], in experiment [1] (setting [3]), the EC50 was found to be 1140 nM. The Kd in experiment [2] amounted to 3.67 nM.
The matching figures for `Cc1c(F)cc2cc1CN1Cc3cc(ccc3OS1(=O)=O)OCCCCn1nnc3c(C)c(ccc31)C2CC(=O)O` (single isomer, unassigned) [Example 18b, [5-Fluoro-4,31-dimethyl-27,27-dioxo-21,26-dioxa-27λ^6-thia-1,14,15,16-tetraazahexacyclo[20.5.3.1^3,70.1^9,130.0^12,160.0^25,29]dotriaconta-3(32),4,6,9(31),10,12,14,22,24,29-decaen-8-yl]acetic acid]: 91.3 nM and 1.01 nM.
The matching figures for `Cc1ccc2cc1CN1Cc3cc(c(Cl)cc3OS1(=O)=O)OCCCCn1nnc3c(C)c(ccc31)C2CC(=O)O` (single isomer, unassigned) [Example 22a, [23-Chloro-4,31-dimethyl-27,27-dioxo-21,26-dioxa-27λ^6-thia-1,14,15,16-tetraazahexacyclo[20.5.3.1^3,70.1^9,130.0^12,160.0^25,29]dotriaconta-3(32),4,6,9(31),10,12,14,22,24,29-decaen-8-yl]acetic acid]: 17.2 nM and 0.631 nM.
In the case of `Cc1ccc2cc1CN1Cc3cc(c(Cl)cc3OS1(=O)=O)OCCCCn1nnc3c(C)c(ccc31)C2CC(=O)O` (single isomer, unassigned) [Example 22b, [23-Chloro-4,31-dimethyl-27,27-dioxo-21,26-dioxa-27λ^6-thia-1,14,15,16-tetraazahexacyclo[20.5.3.1^3,70.1^9,130.0^12,160.0^25,29]dotriaconta-3(32),4,6,9(31),10,12,14,22,24,29-decaen-8-yl]acetic acid], in experiment [1] (setting [3]), the EC50 is 111 nM. For the same compound, in experiment [2], the Kd worked out at 2.11 nM.
For the compound `COCCC1CCOc2ccc3c(c2)CN([C@H](C)c2cc(ccc2C)[C@H](CC(=O)O)c2ccc4c(nnn4C1)c2C)S(=O)(=O)O3` (single isomer, unassigned) [Example 24a], in experiment [1] (setting [3]), the EC50 came out at 7.28 nM. For the same compound, the Kd in experiment [2] worked out at 1.1 nM.
As to `COCCC1CCOc2ccc3c(c2)CN([C@H](C)c2cc(ccc2C)[C@H](CC(=O)O)c2ccc4c(nnn4C1)c2C)S(=O)(=O)O3` (single isomer, unassigned) [Example 24b], in experiment [1] (setting [3]), the EC50 is 2.45 nM. Further, in experiment [2], the Kd worked out at 1.23 nM.
With `COCCC1CCOc2ccc3c(c2)CN([C@H](C)c2cc(ccc2C)[C@@H](CC(=O)O)c2ccc4c(nnn4C1)c2C)S(=O)(=O)O3` (single isomer, unassigned) [Example 24c], the EC50 in experiment [1] (Homo sapiens, U2OS, 3 h, read-out: CELLULAR U2OS EC50 (nM), U2OS Keap1-NRF2 nuclear translocation cells, 3 h incubation, luminescence, normalized between 1% DMSO and 10 μM andrographolide) is 60 nM. For the same compound, the Kd in experiment [2] was 5 nM.
Consider `COCCC1CCOc2ccc3c(c2)CN([C@H](C)c2cc(ccc2C)[C@@H](CC(=O)O)c2ccc4c(nnn4C1)c2C)S(=O)(=O)O3` (single isomer, unassigned) [Example 24d], for which the EC50 in experiment [1] (setting [3]) turned out to be 36.4 nM. Moreover, in experiment [2], the Kd was 4.32 nM.
The matching figures for `COc1cc2c3cc1OCCCCn1nnc4c(C)c(ccc41)C(CC(=O)O)c1ccc(C)c(c1)CN(C3)S(=O)(=O)O2` (single isomer, unassigned) [Example 25a, [23-Methoxy-4,31-dimethyl-27,27-dioxo-21,26-dioxa-27λ^6-thia-1,14,15,16-tetraazahexacyclo[20.5.3.1^3,70.1^9,130.0^12,160.0^25,29]dotriaconta-3(32),4,6,9(31),10,12,14,22,24,29-decaen-8-yl]acetic acid]: 14 nM and 0.562 nM.
The matching figures for `COc1cc2c3cc1OCCCCn1nnc4c(C)c(ccc41)C(CC(=O)O)c1ccc(C)c(c1)CN(C3)S(=O)(=O)O2` (single isomer, unassigned) [Example 25b, [23-Methoxy-4,31-dimethyl-27,27-dioxo-21,26-dioxa-27λ^6-thia-1,14,15,16-tetraazahexacyclo[20.5.3.1^3,70.1^9,130.0^12,160.0^25,29]dotriaconta-3(32),4,6,9(31),10,12,14,22,24,29-decaen-8-yl]acetic acid]: 56.8 nM and 1.16 nM.
For `Cc1ccc2cc1CN1Cc3cc(c(F)cc3OS1(=O)=O)OCCCCn1nnc3c(C)c(ccc31)C2CC(=O)O` (single isomer, unassigned) [Example 32a, [23-Fluoro-4,31-dimethyl-27,27-dioxo-21,26-dioxa-27λ^6-thia-1,14,15,16-tetraazahexacyclo[20.5.3.1^3,70.1^9,130.0^12,160.0^25,29]dotriaconta-3(32),4,6,9(31),10,12,14,22,24,29-decaen-8-yl]acetic acid], in that order: 20 nM and 0.645 nM.
Turning to `Cc1ccc2cc1CN1Cc3cc(c(F)cc3OS1(=O)=O)OCCCCn1nnc3c(C)c(ccc31)C2CC(=O)O` (single isomer, unassigned) [Example 32b, [23-Fluoro-4,31-dimethyl-27,27-dioxo-21,26-dioxa-27λ^6-thia-1,14,15,16-tetraazahexacyclo[20.5.3.1^3,70.1^9,130.0^12,160.0^25,29]dotriaconta-3(32),4,6,9(31),10,12,14,22,24,29-decaen-8-yl]acetic acid], the EC50 in experiment [1] (setting [3]) was found to be 150 nM. Besides, the Kd in experiment [2] is 2.02 nM.
